pIC50: −log10 of the molar value. “Also recorded” adds a separate entry of the source.
Experiments:
[1] = biological target: T1, ROCK1 human recombinant enzyme (Homo sapiens, UniProt Q13464); experiment: ROCK1 inhibition assay (Eurofins-Cerep, phosphorylation of Ulight-RRRSLLE substrate); format: biochemical
T1 construct: purchased EUROFINS-CEREP France (contract assay, study numbers 100033685 and 100040481); host or cells: Sf9 insect cells
Method: (§1) The analysis was performed using software developed at Cerep (Hill software) and GraphPad Prism® 5.0 (GraphPad Software, Inc., San Diego, CA) and validated through comparison with results generated using the SigmaPlot 4.0 software.
(§2) Prior to this assay, we evaluated the solubility of these compounds in water (buffer pH 7.4) to ensure that the inhibition percentages were not influenced by the precipitation of the compounds under test conditions.

[2] = Chemical stability study (pH 2.0 and pH 7.4 buffers); format: physicochemical; conditions: 37 °C
Method: Two microliters ([…]) of a concentrated solution of the compound under examination (40 mM stock solution solubilized in DMSO) and 248 μL of acid (0.2 M potassium chloride and 0.2 M HCl; pH 2.0) or neutral (phosphate dibasic, pH 7.4) buffer were added to a 2 ml Eppendorf microtube. After vortexing, the mixture was placed in a water bath at 37 °C under vigorous stirring for 0, 30, 60, 120, and 240 min. After each reaction, 248 μL of basic buffer (phosphate buffer, pH 8.4) was added to neutralize the pH of the medium in the experiments using acidic buffer. The compound was extracted using 1 ml of acetonitrile followed by vigorous vortexing and freezing of the aqueous phase (−10 °C). The organic phase was separated, filtered, and analysed using an HPLC-PDA (acetonitrile/water […], 0.05% of TFA).
Due to the possible chemical instability of the imine functional group present in the N-sulphonylhydrazone framework, the stability profiles of compounds 5b (LASSBio-2020) and 11 (LASSBio-2065) were determined. The study was conducted under two conditions, pH 2.0 and pH 7.4, to mimic the acidic stomach and the neutral plasma environments, respectively. The compounds were examined in the presence of acid (pH 2) and neutral (pH 7.4) buffers with stirring for 240 min at a controlled temperature (37 °C).

MDA-MB 231 cells [3] = experiment: Cell-based scratch assay (cell migration); design: species or system human; conditions: 10 or 30 μM, 24 h
Method: (§3) The human mammary gland/breast epithelial cell line MDA-MB 231 was obtained from the American Type Culture Collection (ATCC® HTB-26™) and this use was approved by the Ethics Committee for Animal Care and Use in Scientific Research from the Federal University of Rio de Janeiro. Cells were routinely grown in RPMI medium containing 10% foetal bovine serum (FBS), 1% L-glutamine and 1% penicillin-streptomycin, in a humidified 5% CO2 atmosphere at 37 °C. Cells were cultured up to 70–100% confluence and then some cultures were treated with the compounds at different concentrations for 24 or 48 h. All cell culture reagents were purchased from Invitrogen (São Paulo, Brazil).
Cells were cultured in 24-well culture plates for 24 h up to 90–100% confluence. Scratched wound lines were created with the help of a 200 μl micropipette tip. […] Images were acquired with an Olympus DP71 digital camera (Olympus, Japan) and the wound area was quantified using Fiji software (based on ImageJ, http://imageJ.nih.gov/ij/) from three different experiments.
The functions of Rho-kinase include the regulation of cellular contraction, motility, morphology, polarity, division, and gene expression. Therefore, we performed a cell-based scratch assay followed by the quantification of the wounded area to analyse whether compounds 5b (LASSBio-2020) and 11 (LASSBio-2065) altered cell migration. […]

MDA-MB 231 cells [4] = experiment: Plasma membrane integrity assay (LDH); format: cell-based, human; conditions: 0.1 to 30 µM, 24 and 48 h
Method: as §3
To measure plasma membrane integrity, we assayed serum lactate dehydrogenase (LDH) levels and calculated percentages of LDH release to the medium. LDH activity was measured spectrophotometrically using a commercial kit (Doles, Goiás, Brazil). […] Then, 10 μl of NAD were added and absorbance intensities were measured in a microplate reader (FlexStation® 3 Reader, Molecular Devices) at 490 nm. The percentage of LDH release was calculated by ([LDH] sample ×100)/total [LDH]. […]
We also analysed the plasma membrane integrity by measuring the serum lactate dehydrogenase (LDH) levels in the culture medium to confirm the cell viability data. […]

IKK-β = biological target: T2, IKK-β (Homo sapiens, UniProt O14920); experiment: IKK-β inhibition screening; format: biochemical; conditions: screening concentration of 10 μM; data not shown
T2 sequence (O14920 1-756): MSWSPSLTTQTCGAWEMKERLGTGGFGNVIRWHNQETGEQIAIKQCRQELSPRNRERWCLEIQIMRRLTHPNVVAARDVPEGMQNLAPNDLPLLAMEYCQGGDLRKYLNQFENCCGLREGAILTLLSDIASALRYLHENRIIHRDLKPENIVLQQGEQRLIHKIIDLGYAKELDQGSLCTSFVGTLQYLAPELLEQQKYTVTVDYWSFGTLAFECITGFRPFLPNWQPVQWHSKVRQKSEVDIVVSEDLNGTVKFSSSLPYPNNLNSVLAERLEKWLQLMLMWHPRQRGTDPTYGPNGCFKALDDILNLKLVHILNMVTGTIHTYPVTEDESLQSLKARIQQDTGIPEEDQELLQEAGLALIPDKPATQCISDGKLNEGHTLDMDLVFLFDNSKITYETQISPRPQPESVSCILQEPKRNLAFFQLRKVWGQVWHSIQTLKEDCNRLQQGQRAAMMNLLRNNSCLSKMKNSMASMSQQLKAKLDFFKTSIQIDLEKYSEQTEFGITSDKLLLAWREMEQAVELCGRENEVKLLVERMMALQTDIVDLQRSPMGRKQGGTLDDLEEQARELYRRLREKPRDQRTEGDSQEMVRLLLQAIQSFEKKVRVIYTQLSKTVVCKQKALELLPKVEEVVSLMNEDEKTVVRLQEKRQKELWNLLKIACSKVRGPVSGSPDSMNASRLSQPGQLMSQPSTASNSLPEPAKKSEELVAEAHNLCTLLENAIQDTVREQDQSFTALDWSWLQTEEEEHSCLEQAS
Text: Furthermore, considering that 2 (LASSBio-1524) was used in the structural design of this new family of ROCK inhibitors we also investigated the ability of 5b (LASSBio-2020) and 11 (LASSBio-2065) to inhibit IKK-β.

[5] = biological target: T3, ROCK2 human recombinant enzyme (Homo sapiens, UniProt O75116); experiment: ROCK2 inhibition assay (Eurofins-Cerep, phosphorylation of Ulight-RRRSLLE substrate); format: biochemical
T3 construct: purchased EUROFINS-CEREP France (contract assay, study numbers 100033685 and 100040481); host or cells: Sf21 insect cells
Method: as §1, §2

T1 sequence (Q13464 whole entry): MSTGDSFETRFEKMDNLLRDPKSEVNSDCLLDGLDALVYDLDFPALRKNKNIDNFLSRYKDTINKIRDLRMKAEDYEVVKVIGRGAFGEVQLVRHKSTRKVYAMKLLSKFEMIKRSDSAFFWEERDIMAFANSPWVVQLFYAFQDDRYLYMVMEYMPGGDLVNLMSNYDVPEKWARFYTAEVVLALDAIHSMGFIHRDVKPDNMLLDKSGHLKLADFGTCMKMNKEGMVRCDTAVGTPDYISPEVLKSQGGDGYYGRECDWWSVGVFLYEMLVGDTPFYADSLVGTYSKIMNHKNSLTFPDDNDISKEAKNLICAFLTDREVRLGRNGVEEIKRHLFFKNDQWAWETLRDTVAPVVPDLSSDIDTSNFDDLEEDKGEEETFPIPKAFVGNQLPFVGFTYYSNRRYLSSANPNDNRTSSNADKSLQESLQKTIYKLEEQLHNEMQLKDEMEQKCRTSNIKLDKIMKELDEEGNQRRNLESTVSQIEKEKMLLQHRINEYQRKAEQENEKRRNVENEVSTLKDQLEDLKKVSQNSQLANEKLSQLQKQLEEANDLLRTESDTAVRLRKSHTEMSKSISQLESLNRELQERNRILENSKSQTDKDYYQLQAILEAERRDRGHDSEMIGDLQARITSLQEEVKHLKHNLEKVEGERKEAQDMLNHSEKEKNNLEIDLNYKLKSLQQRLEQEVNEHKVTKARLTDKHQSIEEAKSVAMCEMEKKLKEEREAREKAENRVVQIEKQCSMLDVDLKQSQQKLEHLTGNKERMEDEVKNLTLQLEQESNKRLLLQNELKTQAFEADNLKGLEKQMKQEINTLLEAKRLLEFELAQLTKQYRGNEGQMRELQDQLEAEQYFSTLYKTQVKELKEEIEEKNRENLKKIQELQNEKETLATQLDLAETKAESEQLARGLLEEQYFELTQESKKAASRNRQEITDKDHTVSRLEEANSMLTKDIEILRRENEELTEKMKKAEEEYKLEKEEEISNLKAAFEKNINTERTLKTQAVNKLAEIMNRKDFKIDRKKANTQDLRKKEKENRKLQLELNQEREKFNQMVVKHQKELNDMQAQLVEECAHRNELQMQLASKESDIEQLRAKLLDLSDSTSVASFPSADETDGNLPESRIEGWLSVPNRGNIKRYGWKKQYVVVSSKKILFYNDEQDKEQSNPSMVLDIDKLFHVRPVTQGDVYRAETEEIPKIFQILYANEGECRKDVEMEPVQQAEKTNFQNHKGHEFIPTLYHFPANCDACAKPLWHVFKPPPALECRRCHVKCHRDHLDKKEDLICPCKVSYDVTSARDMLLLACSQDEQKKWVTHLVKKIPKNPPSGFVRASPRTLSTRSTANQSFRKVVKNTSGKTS
T3 sequence (O75116 1-543 limits assumed): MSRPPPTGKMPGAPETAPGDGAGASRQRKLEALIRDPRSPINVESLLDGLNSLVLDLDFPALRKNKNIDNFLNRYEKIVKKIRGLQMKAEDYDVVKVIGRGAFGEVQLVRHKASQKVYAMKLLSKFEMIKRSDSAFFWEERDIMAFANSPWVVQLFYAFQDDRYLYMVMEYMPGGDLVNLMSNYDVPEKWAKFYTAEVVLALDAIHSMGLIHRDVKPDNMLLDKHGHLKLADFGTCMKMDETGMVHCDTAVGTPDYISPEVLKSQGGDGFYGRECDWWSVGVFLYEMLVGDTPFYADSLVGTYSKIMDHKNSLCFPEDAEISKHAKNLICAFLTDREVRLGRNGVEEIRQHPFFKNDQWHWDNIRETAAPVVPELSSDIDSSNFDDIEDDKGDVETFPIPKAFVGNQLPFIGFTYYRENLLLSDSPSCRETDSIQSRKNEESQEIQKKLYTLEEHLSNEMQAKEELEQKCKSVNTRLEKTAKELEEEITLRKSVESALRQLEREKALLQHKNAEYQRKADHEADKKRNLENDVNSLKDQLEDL

With CN(/N=C/c1ccccc1)S(=O)(=O)c1cccc2cnccc12 [Compound 11, (E)-N′-benzylidene-N-methylisoquinoline-5-sulphonohydrazide] the “decrease in the IC50 for ROCK1 relative to 5b” value ([1]; N-methylated 11 versus 5b) was “approximately 4 fold”, the pIC50 ([1]; human recombinant ROCK1, five-point assay, 1 to 50 µM, mean of two experiments) was 5.51 and the “recovery percentage under acidic conditions” value ([2]; pH 2, after 30 min of incubation) was 88%. The “degradation in neutral medium” value ([2]; pH 7.4, after 4 h) was “less than 20%”, the “effect on cell migration (result in words)” value (MDA-MB 231 cells [3]) was “inhibited MDA-MB 231 cell migration; also recorded: effective at inhibiting cell migration” and the melting point was 108 °C. The “LDH levels in culture medium / cytotoxicity in LDH assay (result in words)” value (MDA-MB 231 cells [4]) was “not altered”, the “IKK-β inhibition (result in words)” value (IKK-β) was “none of these N-sulphonylhydrazone derivatives was able to inhibit IKK-β” and the “decrease in the IC50 for ROCK2 relative to 5b” value ([5]; N-methylated 11 versus 5b) was ~1.8 fold. For the same compound, the pIC50 ([5]; human recombinant ROCK2, five-point assay, 1 to 50 µM, mean of two experiments) was 5.42.

Reference: paper PMC6060383, “Synthesis and pharmacological evaluation of novel isoquinoline N-sulphonylhydrazones designed as ROCK inhibitors” (Journal of Enzyme Inhibition and Medicinal Chemistry, 2018)
